In patent publication US8877816B2, “4-(or 5-) substituted catechol derivatives” (Decode Genetics EHF, priority 2007, dated 2014) one finds IC50 data, which are given here for twelve compounds.

The target in assay [1] is PDE4 h4B1 (Homo sapiens, UniProt Q07343). Put plainly: In-vitro real-time enzyme-coupled spectrophotometric assay for PDE4 enzymes (h4B1). Type of assay: biochemical. The settings on record: PDE4 isoform h4B1; enzyme-coupled NADH assay, absorbance at 340 nm. The method, then: (§1) In-vitro assay for PDE4 enzymes. The in-vitro activity of PDE4 enzymes and the in-vitro potency of therapeutic agents described in the present invention was measured using a real-time, enzyme-coupled spectrophotometric assay. By using three different coupling enzymes, the product of the PDE4 reaction is coupled to the oxidation of the reduced form β-nicotinamide adenine dinucleotide (NADH), which dissipation can be monitored spectrophotmetrically at […].
Sequence of PDE4 h4B1 (Q07343 whole entry, canonical isoform): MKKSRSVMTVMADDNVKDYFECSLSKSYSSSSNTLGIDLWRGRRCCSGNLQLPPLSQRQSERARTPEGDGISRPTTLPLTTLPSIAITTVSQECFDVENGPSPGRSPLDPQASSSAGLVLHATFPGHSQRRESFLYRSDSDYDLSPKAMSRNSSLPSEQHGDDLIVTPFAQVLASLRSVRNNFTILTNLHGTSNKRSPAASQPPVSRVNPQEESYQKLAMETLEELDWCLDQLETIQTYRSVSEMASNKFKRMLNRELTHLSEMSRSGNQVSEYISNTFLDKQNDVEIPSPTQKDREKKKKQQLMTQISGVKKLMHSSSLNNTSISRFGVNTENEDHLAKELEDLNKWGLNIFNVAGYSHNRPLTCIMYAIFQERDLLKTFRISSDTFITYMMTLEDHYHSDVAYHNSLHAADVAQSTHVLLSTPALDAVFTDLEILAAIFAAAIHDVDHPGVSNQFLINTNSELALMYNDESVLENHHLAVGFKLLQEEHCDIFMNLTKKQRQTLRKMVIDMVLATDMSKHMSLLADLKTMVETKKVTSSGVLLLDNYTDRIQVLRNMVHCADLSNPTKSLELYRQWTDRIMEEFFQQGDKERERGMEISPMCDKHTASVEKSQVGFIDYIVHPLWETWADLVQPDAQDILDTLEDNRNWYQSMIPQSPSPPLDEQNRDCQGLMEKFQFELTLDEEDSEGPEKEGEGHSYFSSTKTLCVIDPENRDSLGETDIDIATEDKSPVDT
(§2) Assay description. Buffer A containing 50 mM Tris, pH 8.0, 16 mM MgCl2 and 80 mM KCl is prepared and stored at room temperature. Buffer B containing 50 mM Tris, pH 8.0 is prepared and stored at room temperature. Stock solutions of the following reagents are prepared in Buffer B and stored at −20° C.: Adenosine-5′-triphosphate (ATP), cyclic adenosine-5′-monophosphate (cAMP), phosphoenolpyruvate (PEP) and NADH. An assay mix is prepared by mixing Buffer A, […] (TCEP), ATP, PEP, NADH, myokinase (MK), pyruvate kinase (PK), lactate dehydroganese (LDH) and PDE4 to a final volume of 20 mL, which is enough for a single 96-well assay plate. Assay mix (180 μL) and test article (10 μL) in 1:1 DMSO/H2O mixture is pre-incubated at room temperature for 10 min. The enzymatic reaction is initiated by addition of cAMP (10 μL). Final concentration of all components in the assay (200 μL/well) are as follows: 10 mM MgCl2, 50 mM KCl, 5 mM TCEP, 2.5% DMSO, 0.4 mM NADH, 1 mM PEP, 0.04 mM ATP, 5 units MK, 1 unit PK, 1 unit LDH and appropriate amount of PDE4. Reaction progress curves are monitored in a plate reader capable of measuring light absorbance at 340 nm. A decrease in light absorbance at 340 nm is due to oxidation of NADH. Positive controls containing no test article and negative controls containing no test article and no cAMP are included on every assay plate. Reaction rates are determined from the slopes of the linear portions of the progress curves. All data are percent normalized with respect to controls and presented as percent inhibition.

Assay [2] addresses PDE4 h4D7 (Homo sapiens, UniProt Q08499). Put plainly: In-vitro real-time enzyme-coupled spectrophotometric assay for PDE4 enzymes (h4D7). The note with it: PDE4 isoform h4D7; enzyme-coupled NADH assay, absorbance at 340 nm. It is filed as biochemical. The method, then:
as §1, §2

For assay [3], the system named is leukotriene E4 (LTE4) in human whole blood after Sephadex stimulation. As to the kind of experiment: Ex-vivo assay: Sephadex bead stimulated LTE4 production in human whole blood. Type of assay: cell-based. The note with it: 1.5 h; heparinized human whole blood, Sephadex G-15 beads, 37° C. 90 min, LTE4 by immunoassay; read-out: IC50 (inhibition of LTE4 production). The method, then: The activity of PDE4 inhibitors described in the present invention was also measured using in an ex-vivo assay measuring leukotriene E4 (LTE4) in human whole blood after Sephadex stimulation. […] For each sample, 356 μl of heparinized human whole blood (Vacutainer tube #6480) is added to wells of a 96 well plate. Then, 4 μl of a series of compound dilutions (in DMSO) are added in triplicates, suspension mixed and allowed to incubate at 37° C. for 15 min with gentle shaking. After that, blood samples are stimulated by adding 40 μL of Sephadex G-15 beads (Sigma-Aldrich, Sweden). The beads are predissolved in PBS (0.16 g/mL PBS). After mixing, the suspension is incubated at 37° C. for 90 min. Then, 8 μL of 15% EDTA/PBS is added to each sample, mixed and plate centrifuged for 5 min at 115×g at 21° C. and supernatants taken. In each plate, 10 positive controls and 10 negative controls are used, containing DMSO instead of compound solution. The positive controls are stimulated with Sephadex as described for the samples, and in the negative controls (unstimulated), Sephadex solution is replaced by PBS. LTE4 levels in the resulting plasma samples are determined using a commercial enzyme-linked immunoassay (Cayman Chemical Company, Ann Arbor, Mich.) according to the manufacturer's instructions. […]

Sequence of PDE4 h4D7 (Q08499 1-748 isoform Q08499-11): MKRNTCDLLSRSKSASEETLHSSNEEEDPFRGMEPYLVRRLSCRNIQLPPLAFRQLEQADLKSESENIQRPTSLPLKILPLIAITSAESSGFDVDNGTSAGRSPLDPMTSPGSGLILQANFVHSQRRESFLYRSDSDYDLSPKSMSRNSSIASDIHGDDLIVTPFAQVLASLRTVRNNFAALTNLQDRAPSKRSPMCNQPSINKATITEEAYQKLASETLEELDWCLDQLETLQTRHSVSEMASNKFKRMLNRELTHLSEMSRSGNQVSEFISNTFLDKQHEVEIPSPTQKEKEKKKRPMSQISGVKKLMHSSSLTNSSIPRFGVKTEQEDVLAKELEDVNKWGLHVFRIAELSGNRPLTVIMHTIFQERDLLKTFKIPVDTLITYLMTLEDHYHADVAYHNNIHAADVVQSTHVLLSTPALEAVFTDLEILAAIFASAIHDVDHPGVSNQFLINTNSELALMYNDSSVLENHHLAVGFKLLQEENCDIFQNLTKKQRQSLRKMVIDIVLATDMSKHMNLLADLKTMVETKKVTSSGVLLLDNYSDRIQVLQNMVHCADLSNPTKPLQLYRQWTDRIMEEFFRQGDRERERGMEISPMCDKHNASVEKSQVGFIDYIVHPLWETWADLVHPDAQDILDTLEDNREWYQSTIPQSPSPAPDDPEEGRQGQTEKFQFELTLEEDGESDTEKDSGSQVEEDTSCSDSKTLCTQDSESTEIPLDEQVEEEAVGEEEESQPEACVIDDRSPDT

In the case of `COc1ccc(Cc2ccc(F)cc2)c(F)c1Oc1cccc([N+](=O)[O-])c1` [Example P-01, 2-Fluoro-1-(4-fluoro-benzyl)-4-methoxy-3-(3-nitro-phenoxy)-benzene], the IC50 (in general, the point on the concentration scale where inhibition reaches its midpoint) in assay [1] was above 21 µM; in assay [2] it was below 1 µM; in assay [3], below 1 µM.
With `COc1ccc(Cc2ccc(NC(C)=O)cc2)c(F)c1Oc1ccc(F)cc1` [Example P-10, N-{4-[2-Fluoro-3-(4-fluoro-phenoxy)-4-methoxy-benzyl]-phenyl}-acetamide], the figures for the IC50 in assay [1] and in assay [2] were above 21 µM and 11 to 20 µM, respectively.
On the same counts, the results for `COc1ccc(Cc2ccc(F)cc2)c(F)c1Oc1cccc(N)c1` [Example P-02, 3-[2-Fluoro-3-(4-fluoro-benzyl)-6-methoxy-phenoxy]-phenylamine] are above 21 µM and above 21 µM.
On the same counts, the results for `COc1ccc(Cc2ccc(N)nc2)cc1Oc1cccc(Cl)c1` [Example P-05, 5-[3-(3-Chloro-phenoxy)-4-methoxy-benzyl]-pyridin-2-ylamine] are 11 to 20 µM and 1 to 10 µM.
On the same counts, the results for `COc1ccc(Cc2ccc(NC(N)=O)cc2)c(F)c1Oc1ccccn1` [Example P-12] are above 21 µM and below 1 µM.
On to `COc1ccc(Cc2ccc(O)cc2)cc1Oc1cccc(Cl)c1` [Example P-08, 4-[3-(3-chloro-phenoxy)-4-methoxy-benzyl]-phenol], for which the half-maximal inhibitory concentration (IC50) in assay [1] was above 21 µM; in assay [2], 1 to 10 µM.
On the same counts, the results for `COc1ccc(Cc2ccc(NS(C)(=O)=O)cc2)cc1Oc1ccccc1` [Example P-04, N-[4-(4-Methoxy-3-phenoxy-benzyl)-phenyl]-methanesulfonamide] are above 21 µM and above 21 µM.
On the same counts, the results for `COc1ccc(Cc2ccc(F)cc2)c(F)c1Oc1cccc(Cl)c1` [Example P-03, 2-(3-Chloro-phenoxy)-3-fluoro-4-(4-fluoro-benzyl)-1-methoxy-benzene] are 1 to 10 µM and below 1 µM.
On the same counts, the results for `COc1ccc(Cc2ccc(NC(N)=O)nc2)cc1Oc1cccc(Cl)c1` [Example P-06, {5-[3-(3-Chloro-phenoxy)-4-methoxy-benzyl]-pyridin-2-yl}-urea] are 1 to 10 µM and 1 to 10 µM.
Consider `COc1ccc(Cc2ccc(NC(N)=O)cc2)c(F)c1Oc1ccc(F)cc1` [Example P-11, {4-[2-Fluoro-3-(4-fluoro-phenoxy)-4-methoxy-benzyl]-phenyl}-urea], for which the IC50 in assay [1] is 1 to 10 µM; in assay [2] it was below 1 µM.
On the same counts, the results for `COc1ccc(Cc2ccc(NS(C)(=O)=O)nc2)cc1Oc1cccc(Cl)c1` [Example P-09, N-{5-[3-(3-Chloro-phenoxy)-4-methoxy-benzyl]-pyridin-2-yl}-methanesulfonamide] are above 21 µM and 1 to 10 µM.
On the same counts, the results for `COc1ccc(Cc2ccc(N)cc2)cc1Oc1cccc(Cl)c1` [Example P-07, 4-[3-(3-Chloro-phenoxy)-4-methoxy-benzyl]-phenylamine] are 1 to 10 µM and 1 to 10 µM.
